This is an account of results in patent publication US20230364051A1, “FORMULATIONS AND METHODS FOR IMPROVING AVIAN HEALTH” (CORNELL UNIVERSITY, priority 2022, published 2023).

In experiment [1] the test system is BBM Fe-related proteins and intestinal bacterial populations. The note with it: in vivo; cited from earlier work.
Experiment [2] can be described thus: Blood hemoglobin (QuantiChrom Hemoglobin Assay) at hatch after intraamniotic administration. It counts as in vivo, Gallus gallus. To be noted: 5 wt. % inulin intraamniotic, day 17; blood at hatch. The protocol:
(§1) Cornish-cross fertile broiler eggs (Gallus gallus, n = 39) were obtained from a commercial hatchery (Moyer’s chicks, Quakertown, PA, USA). The eggs were incubated under optimal conditions at the Cornell University Animal Science Poultry Farm Incubator [18]. […] Each group was then injected with the specific solution (1 mL per egg) with a 21-gauge needle into the amniotic fluid. Treatments in powder form were separately diluted in DI H2O. […] After injection, the injection holes were sealed with cellophane tape and the eggs were placed in hatching baskets such that each treatment was equally represented at each incubator location. Immediately upon hatch (day 21), blood was taken for hemoglobin determination and all chicks were then euthanized by CO2 exposure. The small intestine, pectoral muscle, cecum, and liver were collected, immediately frozen in liquid nitrogen, and then stored in a -80° C. freezer until analysis.
Blood was collected using micro-hematocrit heparinized capillary tubes (Fisher Scientific, Waltham, MA, USA). Blood Hb concentrations were determined spectrophotometrically using the QuantiChromTM Hemoglobin Assay (DIHB-250, BioAssay Systems, Hayward, CA, USA) following the kit manufacturer’s instructions.

A short description of experiment [3]: Body weight and cecum weight at hatch after intraamniotic administration. In kind it is in vivo, Gallus gallus. The protocol: (§2) Cornish-cross fertile broiler eggs (Gallus gallus, n = 39) were obtained from a commercial hatchery (Moyer’s chicks, Quakertown, PA, USA). The eggs were incubated under optimal conditions at the Cornell University Animal Science Poultry Farm Incubator [18]. All animal protocols were approved by Cornell University Institutional Animal Care and Use committee (IACUC #2020-0077). At day 17 of embryonic incubation, eggs containing viable embryos were weighed and divided into 5 groups, with all treatment groups assigned eggs of similar weight frequency distribution. Each group was then injected with the specific solution (1 mL per egg) with a 21-gauge needle into the amniotic fluid. Treatments in powder form were separately diluted in DI H2O. Two treatment groups (1.25, 2.5 wt. %), two controls (H2O and non-injected), and a positive control (5 wt. % inulin) were administered. After injection, the injection holes were sealed with cellophane tape and the eggs were placed in hatching baskets such that each treatment was equally represented at each incubator location. Immediately upon hatch (day 21), blood was taken for hemoglobin determination and all chicks were then euthanized by CO2 exposure. The small intestine, pectoral muscle, cecum, and liver were collected, immediately frozen in liquid nitrogen, and then stored in a -80° C. freezer until analysis.

Experiment [4] can be described thus: Pectoral muscle glycogen analysis after intraamniotic administration. To be noted: 5 wt. % inulin intraamniotic, day 17; pectoral muscle at hatch. It counts as in vivo, Gallus gallus. The procedure:
as §2
Glycogen analysis was obtained from pectoralis muscle as previously described. Briefly, the frozen pectoral muscle samples were homogenized in 8 wt. % perchloric acid. Samples were then centrifuged at 12,000 × g for 15 minutes. The supernatant was removed, and 1.0 mL of petroleum ether was added to each tube. After mixing, the petroleum ether fraction was removed and samples from the bottom layer were transferred to a 96-well plate containing 300 µL of color reagent. All samples were read at a wavelength of 450 nm in an ELISA reader and the amount of glycogen was calculated according to a standard curve. The amount of glycogen present in pectoral sample was determined by multiplying the weight of the tissue by the amount of glycogen per 1 g of wet tissue.

Another experiment relates to L. plantarum. Nature of the experiment: Duodenal bacterial populations by PCR of 16S rDNA: L. plantarum. It counts as in vivo, Gallus gallus. To be noted: 5 wt. % inulin vs H2O injected control, p < 0.05; duodenum, day of hatch. The procedure: as §2, with “Immediately upon hatch (day 21), blood was taken for hemoglobin determination and all chicks were then euthanized by CO2 exposure. The small intestine, pectoral muscle, cecum, and liver were collected, immediately frozen in liquid nitrogen, and then stored in a -80° C. freezer until analysis.” left out
(§3) Primers for Lactobacillus, Bifidobacterium, L. Plantarum, Clostridium, and E. coli were designed according to previously published data. […] PCR products were separated by electrophoresis on 2 wt. % agarose gel, stained with ethidium bromide, and quantified using the Quantity One 1-D analysis software (BioRad, Hercules, CA, USA).

In a further experiment the test system is Clostridium spp. Nature of the experiment: Duodenal bacterial populations by PCR of 16S rDNA: Clostridium. It counts as in vivo, Gallus gallus. To be noted: 5 wt. % inulin vs no injection and H2O injection controls, p < 0.05; duodenum, day of hatch. The procedure:
as §2, with “Immediately upon hatch (day 21), blood was taken for hemoglobin determination and all chicks were then euthanized by CO2 exposure. The small intestine, pectoral muscle, cecum, and liver were collected, immediately frozen in liquid nitrogen, and then stored in a -80° C. freezer until analysis.” left out
as §3

The next experiment concerns duodenum. The experiment can be described thus: Duodenal tissue morphology examination (villi, crypts, goblet cells, Paneth cells). In kind it is in vivo, Gallus gallus. To be noted: 5 wt. % inulin intraamniotic, day 17; duodenum at hatch. The protocol: as §1
Intestinal morphology examination was performed as was previously described. Duodenum samples were fixed in fresh 4 wt. % (v/v) buffered formaldehyde, dehydrated, cleared, and embedded in paraffin. Serial sections were cut at 5 µm and placed on glass slides. Intestinal sections were deparaffinized in xylene, rehydrated in a graded alcohol series, stained with Alcian Blue/Periodic acid-Schiff, and examined by light microscopy. The following variables were measured in the intestine: villus height, villus width, crypt depth, Paneth cell number per crypt, Paneth cell width, goblet cell number, goblet cell diameter, types of goblet cells in the villi epithelium, and types of goblet cells within the crypts. Measurements in each segment were performed with a light microscope using CellSens Standard software (Olympus, Waltham, MA, USA).

The mark [5] stands for this setting: 5 wt. % inulin intraamniotic, day 17, at hatch.

Marks after values point to notes of the source that are not given here.

For the compound `O=c1c(-c2ccc(O)cc2)coc2cc(O)ccc12` [daidzein], the “Expression of BBM Fe-related proteins and intestinal bacterial populations” value in experiment [1] was “affected”.
As for inulin [reference compound], in experiment [2], the “Average Hb” value was 9.56 ± 0.92 ^c g/dL. In addition, in experiment [3] (setting [5]), the “Average Body Weight” value is 46.04 ± 1.18 ^ab g and the “Average Cecum Weight” value was 0.43 ± 0.05 ^b g. Further, the “Cecum weight of no injection and H2O groups compared to treated group” value in experiment [3] (5 wt. % inulin, p < 0.05) is given as “significantly greater values”. The “Average Glycogen” value in experiment [4] is on record as 0.002 ± 0.001 ^b mg/g. Also, the “Relative abundance of L. plantarum” value in the experiment on L. plantarum is listed as “significantly increased”. Moreover, the “Relative abundance of Clostridium spp.” value with Clostridium spp. is “significantly increased”. For the same compound, in the experiment on duodenum, the “# Crypt Paneth Cells” value is listed as 2.56 ± 0.09 ^c, the “Crypt Depth” value is on record as 35.00 ± 0.43 ^b µm, the “Crypt Goblet Cell Diameter” value is given as 2.51 ± 0.02 ^c µm and the “Crypt Goblet Cell Number Acidic” value is 7.97 ± 0.16 ^b Unit. For the same compound, in the experiment with duodenum, the “Crypt Goblet Cell Number Mixture” value is recorded as 1.19 ± 0.08 ^c Unit, the “Crypt Goblet Cell Number Neutral” value is 0.00 ± 0.00 ^a Unit, the “Crypt Goblet Cell Number Total” value was 9.15 ± 0.16 ^b Unit and the “Crypt Paneth cell Diameter” value is listed as 1.68 ± 0.03 ^b µm. Besides, in the experiment on duodenum, the “Villi Goblet Cell Diameter” value is 2.74 ± 0.03 ^e µm, the “Villi Goblet Cell Number Acidic” value was 16.39 ± 0.54 ^c Unit, the “Villi Goblet Cell Number Mixture” value is 6.53 ± 0.30 ^a Unit and the “Villi Goblet Cell Number Neutral” value is reported as 0.10 ± 0.02 ^b Unit. Further, in the experiment on duodenum, the “Villi Goblet Cell Number Total” value is listed as 23.02 ± 0.60 ^b Unit, the “Villus Height” value is given as 246.64 ± 5.14 ^a µm, the “Villus Surface Area” value is reported as 206.92 ± 6.37 ^a mm2 and the “Villus Width” value is 50.98 ± 1.03 ^a µm.
